Laboratory results from PMC8122087 (Cell, 2021).
“Also recorded” adds a separate entry of the source. Structures can show the parent of a compound that is named as a salt. Where two headings read alike, the source gives them in different places.

Legend:
[1] = biological target: psychLight2 (HEK293T cell line stably expressing psychLight2, PSYLI2) (Homo sapiens, UniProt P28223, DEL264-312/E264Q/I181A/I315S/INS316[…]/S314L); assay: PSYLI2 high-content imaging assay, agonist mode; format: cell-based
Sequence of psychLight2 (HEK293T cell line stably expressing psychLight2, PSYLI2) (P28223 1-471 with tags or gaps with the stated changes): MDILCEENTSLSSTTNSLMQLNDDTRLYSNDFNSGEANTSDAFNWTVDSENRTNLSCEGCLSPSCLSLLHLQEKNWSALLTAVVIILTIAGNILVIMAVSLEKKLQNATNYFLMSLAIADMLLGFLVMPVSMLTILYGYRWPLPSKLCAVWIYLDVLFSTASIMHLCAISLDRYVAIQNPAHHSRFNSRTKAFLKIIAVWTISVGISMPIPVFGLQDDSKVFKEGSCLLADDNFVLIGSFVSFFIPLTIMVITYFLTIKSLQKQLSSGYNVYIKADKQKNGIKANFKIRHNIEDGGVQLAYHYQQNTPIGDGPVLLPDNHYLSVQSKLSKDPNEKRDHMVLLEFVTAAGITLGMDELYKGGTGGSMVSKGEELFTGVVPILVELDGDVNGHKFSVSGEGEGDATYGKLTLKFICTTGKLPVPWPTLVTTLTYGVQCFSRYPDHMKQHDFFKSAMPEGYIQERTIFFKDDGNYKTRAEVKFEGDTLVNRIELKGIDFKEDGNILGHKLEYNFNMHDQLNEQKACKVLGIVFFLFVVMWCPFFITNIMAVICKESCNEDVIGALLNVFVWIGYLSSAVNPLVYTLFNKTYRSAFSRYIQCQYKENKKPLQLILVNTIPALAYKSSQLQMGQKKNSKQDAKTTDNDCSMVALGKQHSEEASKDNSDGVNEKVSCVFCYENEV

[2] = biological target: psychLight1 (human 5-HT2AR-based fluorescent sensor) (Homo sapiens, UniProt P28223, DEL264-312/E264Q/I181A/I315S/INS316[…]/S314L); format: cell-based
Sequence of psychLight1 (human 5-HT2AR-based fluorescent sensor) (P28223 1-471 with tags or gaps with the stated changes): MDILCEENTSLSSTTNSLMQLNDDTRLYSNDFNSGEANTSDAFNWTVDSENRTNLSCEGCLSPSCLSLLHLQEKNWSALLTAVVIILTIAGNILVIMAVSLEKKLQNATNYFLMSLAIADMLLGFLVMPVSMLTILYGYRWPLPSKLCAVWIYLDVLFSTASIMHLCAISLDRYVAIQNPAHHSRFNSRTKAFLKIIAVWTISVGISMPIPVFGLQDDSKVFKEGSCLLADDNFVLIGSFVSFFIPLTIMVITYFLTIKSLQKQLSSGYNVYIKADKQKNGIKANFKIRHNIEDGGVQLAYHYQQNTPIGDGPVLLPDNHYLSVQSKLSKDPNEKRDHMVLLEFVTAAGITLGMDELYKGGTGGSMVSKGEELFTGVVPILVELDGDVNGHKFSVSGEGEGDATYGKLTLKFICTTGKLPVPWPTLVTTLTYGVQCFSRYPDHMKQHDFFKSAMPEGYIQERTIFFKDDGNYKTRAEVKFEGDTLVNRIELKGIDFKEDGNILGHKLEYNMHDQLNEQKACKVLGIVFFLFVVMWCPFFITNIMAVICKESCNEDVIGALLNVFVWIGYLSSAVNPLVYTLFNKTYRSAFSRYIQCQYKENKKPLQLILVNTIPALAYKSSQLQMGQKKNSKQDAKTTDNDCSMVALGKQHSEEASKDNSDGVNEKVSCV

psychLight2 [3] = biological target: psychLight2 (Homo sapiens, UniProt P28223, DEL264-312/E264Q/I181A/I315S/INS316[…]/S314L); details: mouse
[4] = biological target: T1, psychLight2 (PSYLI2 cells) (Homo sapiens, UniProt P28223, DEL264-312/E264Q/I181A/I315S/INS316[…]/S314L); format: cell-based
head-twitch response = assay: Head-twitch response; format: in vivo, mouse
psychLight2 [5] = format: cell-based, mouse
locomotion = assay: Locomotion assay; format: in vivo, mouse; details: C57BL/6J mice, i.p., n = 4 mice
C57BL/6J mice = assay: Forced swim test; format: in vivo, mouse
[6] = system: cultured rat embryonic cortical neurons; assay: Dendritogenesis in cultured rat embryonic cortical neurons; format: cell-based; details: Sholl analysis, Nmax
[7] = system: VMAT2 heterozygous (VMAT2-HET) and WT mice; assay: Sucrose preference test; format: in vivo, mouse; details: 15 mg/kg i.p., single administration
[8] = biological target: T1, psychLight2 (PSYLI2 cells); format: cell-based; remark: listed apart in the source
[9] = system: endogenous 5-HT release (psychLight2 response); parameters: species or system mouse; details: electrical stimulation, incubation with 50 μM
[10] = 10 μM compound treatment (Fig. 4C)
[11] = C57BL/6J mice, i.p., dose-response, n = 4 mice

**Q.** How did the “PSYLI2 fluorescence ΔF/F” value [1, 10] turn out when CNCCc1c[nH]c2ccc(O)cc12 [N-5-HT, N-methylserotonin] was run?
**A.** Its value is 24.6 ± 1.7%.

**Q.** Which results are given for O=C(c1ccc(F)cc1)C1CCN(CCn2c(=O)[nH]c3ccccc3c2=O)CC1 [ketanserin]?
**A.** competition with / block of 5-HT-induced activation of psychLight [2]: able to block 5-HT-induced activation of psychLight; effect on psychLight1 fluorescence [2]: either had minimal effect on psychLight1 fluorescence or slightly quenched the sensor; psychLight1 fluorescence response (ΔF/F) [2]: −1.7 ± 0.3%; psychLight2 fluorescence in vivo (psychLight2 [3]): decreased; PSYLI2 response [1]: −12.7 ± 0.5%; psychLight2 fluorescence response (ΔF/F) [1]: −3.5 ± 1.6%

**Q.** NCCc1c[nH]c2ccccc12 [tryptamine] was tested. Which “PSYLI2 fluorescence ΔF/F” value [1] did it give?
**A.** Its value is “produces a robust response”.

**Q.** Which results are given for CN(C)CCc1c[nH]c2ccc(F)cc12 [5-F-DMT, 5-flouo-N,N-dimethyltryptamine]?
**A.** ligand score [4]: positive; head-twitch response (head-twitch response; mouse, in vivo, ip): produced robust HTRs

**Q.** For CN(C)CCc1c[nH]c2ccccc12 [DMT, N,N-dimethyltrytamine], which Emax [2] is on record?
**A.** Its Emax is 12.4%.

**Q.** And the EC50 ([2]; read-out: half maximal effective concentration (EC50))?
**A.** Its EC50 is 627 nM.

**Q.** With NCCc1c[nH]c2ccc(O)cc12 [5-HT, serotonin] as the compound, how does the “psychLight1 fluorescence response (ΔF/F)” value [2] read?
**A.** Its value is 77.3 ± 2.4%.

**Q.** What about the “PSYLI2 fluorescence ΔF/F” value [1] of the same compound?
**A.** Its value is 46.3 ± 1.4%.

**Q.** What about the PSYLI2 response [1] of the same compound?
**A.** Its PSYLI2 response is 44.8 ± 0.8%.

**Q.** And the “psychLight2 fluorescence response (ΔF/F)” value [1]?
**A.** Its value is 38.2 ± 2.4%.

**Q.** What about the ΔpL2/tdT (psychLight2 [5]) of the same compound?
**A.** Its ΔpL2/tdT is 111.1 ± 1.8%.

**Q.** What does the source list for COc1ccc2c(ccn2C[C@@H](C)N(C)C)c1 [AAZ-A-154]?
**A.** locomotion (locomotion): only decreases locomotion at a very high dose (100 mg/kg); head-twitch response (head-twitch response; [11]): failed to produce any head-twitches, even up to doses as high as 100 mg/kg; immobility in the forced swim test (C57BL/6J mice; 20 mg/kg i.p., single administration, n = 12): decreased immobility; onset and duration of antidepressant-like effects in FST (C57BL/6J mice; mouse, in vivo): both rapid (30 min) and long-lasting (1 week) antidepressant-like effects; dendritic arbor complexity [6]: increases dendritic arbor complexity to a comparable extent as the fast-acting antidepressant ketamine; sucrose preference in WT mice [7]: did not modify sucrose preference in the WT animals; sucrose preference in VMAT2-HET mice ([7]; 1% sucrose): exhibited a sucrose preference that was indistinguishable from WT controls; persistence of anti-anhedonic effect ([7]; VMAT2-HET mice): at least 12 days

**Q.** With CN(C)CCc1c[nH]c2ccc(O)cc12 [BUFO, N,N-dimethylserotonin] as the compound, how does the “PSYLI2 fluorescence ΔF/F” value [1, 10] read?
**A.** The value was 22.3 ± 2.8%.

**Q.** Which “competition with / block of 5-HT-induced activation of psychLight” value [2] does the source give for COc1ccc2c(CCN(C)C)c[nH]c2c1 [6-MeO-DMT, 6-methoxy-N,N-dimethyltryptamine] here?
**A.** Its value is “can compete off 5-HT resulting in a reduction in psychLight fluorescence; also recorded: capable of binding to the receptor despite lacking efficacy”.

**Q.** And the “psychLight1 fluorescence response (ΔF/F)” value ([2]; 10 μM, confocal microscope, n = 3)?
**A.** The value was −1.1 ± 4.6%.

**Q.** What about the “psychLight2 fluorescence response (ΔF/F)” value ([1]; 10 μM, high content imager (Suppl. Fig. 3C)) of the same compound?
**A.** Its value is −3.0 ± 2.7%.

**Q.** Which ligand score [4] does the source give for c1ccc(C2(N3CCCCC3)CCCCC2)cc1 [phencyclidine] here?
**A.** The ligand score was about 0.

**Q.** COc1ccc2[nH]cc(CCN(C)C)c2c1 [5-MeO-DMT, 5-methoxy-N,N-dimethyltryptamine] was tested. Which Emax [2] did it give?
**A.** The Emax was 48.4%.

**Q.** And the “psychLight1 fluorescence response (ΔF/F)” value [2]?
**A.** The value was 48.4 ± 3.1%.

**Q.** What about the “psychLight2 fluorescence in vivo” value (psychLight2 [3]) of the same compound?
**A.** Its value is “sharp increase in fluorescence”.

**Q.** And the “psychLight2 fluorescence response (ΔF/F)” value [1]?
**A.** The value was 24.1 ± 4.6%.

**Q.** What about the “head-twitch response during fiber photometry” value (head-twitch response; 50 mg/kg, i.p., within 1 min of administration, n = 3 animals) of the same compound?
**A.** Its value is “concomitant increase in HTR”.

**Q.** CN1CCc2cccc3c2[C@H]1Cc1ccc(O)c(O)c1-3 [apomorphine, R-(−)-apomorphine hydrochloride hemihydrate] was tested. Which “Schild regression analysis (pA2)” value [8] did it give?
**A.** Its value is “potent psychLight competitive antagonists”.

**Q.** CP(C)C.F[P-](F)(F)(F)(F)F.F[P-](F)(F)(F)(F)F.NCCc1c[nH]c2ccc(O)cc12.[Ru+2].c1ccc(-c2ccccn2)nc1.c1ccc(-c2ccccn2)nc1 [RuBi–5-HT] was tested. Which Tauoff (psychLight2 [5]) did it give?
**A.** Its Tauoff is 5.4 ± 0.9 ms.

**Q.** And the “peak ΔpL2/tdT normalized to baseline” value (psychLight2 [5])?
**A.** Its value is 111.2 ± 0.7%.

**Q.** CN(C)CCC[C@@]1(c2ccc(F)cc2)OCc2cc(C#N)ccc21 [escitalopram] was tested. Which “amplitude of the psychLight2 response ΔF/F” value [9] did it give?
**A.** Its value is 18.4 ± 4.3%.

**Q.** With COC(=O)[C@@H]1C[C@H](OC(C)=O)C(=O)[C@H]2[C@@]1(C)CC[C@H]1C(=O)O[C@H](c3ccoc3)C[C@]21C [salvinorin A] as the compound, how does the ligand score [4] read?
**A.** The ligand score was about 0.

**Q.** CN(C)CCc1c[nH]c2ccc(Cl)cc12 [5-Cl-DMT, 5-chloro-N,N-dimethyltryptamine] was tested. Which ligand score [4] did it give?
**A.** Its ligand score is “positive”.

**Q.** And the head-twitch response (head-twitch response; [11])?
**A.** Its head-twitch response is “produced robust HTRs”.

**Q.** Which results are given for CN(C)CCc1c[nH]c2ccc(Br)cc12 [5-Br-DMT, 5-bromo-N,N-dimethyltryptamine]?
**A.** ligand score [4]: negative; head-twitch response (head-twitch response; [11]): failed to induce HTRs at any dose
